From PubChem BioAssay (NCI)
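Cultured in 96-well plates, cells were exposed to test compound for 48 hours across five concentrations. GI50: concentration for 50% inhibition of growth. At the TGI there is no net growth.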

Key:
Assay in all cases: NCI tumour cell line growth inhibition, 48 h
[1] = system: MCF7 breast
[2] = system: HS 578T breast
[3] = system: MDA-N
[4] = system: KM20L2 colon
[5] = system: DLD-1 colon
[6] = system: RXF-631 renal
[7] = system: P388/ADR leukemia
[8] = system: P388 leukemia
[9] = system: SN12K1 renal

SMILES | TGI [1] | TGI [2] | TGI [4] | TGI [5] | GI50 [1] | GI50 [2] | other results
O=C1/C(=C\c2ccccc2)c2ccccc2N1Cc1ccccc1 | 12.3 µM | 20.9 µM |  |  |  |  | TGI [3]: 13.4 µM
O=C(Nc1cc(C(F)(F)F)ccc1Cl)C(=O)C(C(=O)c1ccc2ccccc2c1)C1OC(=O)c2ccccc21 (stereo unspecified) |  |  | 39.1 µM | 36.3 µM |  |  | 
CC(C)OCN1COCN=C1NC#N |  |  | > 100 µM | 57.6 µM |  |  | TGI [6]: > 100 µM
C/C=C(/C)C(=O)OC1C=C(CO)C(=O)C(OC(=O)/C(C)=C\C)C1C(C)C (stereo unspecified) | 2.16 µM | 6.29 µM |  |  | 0.416 µM | 2.35 µM | 
CCOC(=O)c1c(C)c2c(n1C)CSc1cc(S(=O)(=O)c3ccccc3)c(=O)[nH]c1-2 | > 100 µM | > 100 µM |  |  | 19.3 µM | 40.1 µM | 
CNC(=O)OCc1nc(S(C)=O)n(C)c1COC(=O)NC (stereo unspecified) | > 100 µM |  | > 100 µM | > 100 µM |  |  | TGI [7]: > 100 µM; TGI [8]: > 100 µM; TGI [9]: > 100 µM; TGI [6]: > 100 µM
Fc1cccc(F)c1C1SCc2nc3ccccc3n21 (stereo unspecified) |  |  | > 100 µM | > 100 µM |  |  | 
CC(=O)O[C@H]1CCC2[C@@H]3CCC4C(=O)c5oncc5C[C@]4(C)C3CC[C@@]21C (stereo partly specified) |  |  | > 100 µM | > 100 µM |  |  | 
COC1OC(C)C(OC(=O)C(C)(C)C)C(C)(O)C1O (stereo unspecified) |  |  | > 100 µM | > 100 µM |  |  | 
O=C(O)C1Cc2nc[nH]c2CN1 (stereo unspecified) |  |  | > 100 µM | > 100 µM |  |  | TGI [6]: > 100 µM
Cc1c2n(c3ccccc13)CC1C2N(C)OC1(C)C (stereo unspecified) |  |  | > 100 µM | > 100 µM |  |  | 
C[C@]12CC[C@@H]3c4ccc(O)cc4CC[C@H]3[C@@H]1CC[C@@H]2NS(=O)(=O)c1cccc(Br)c1 | 10.9 µM | 24.8 µM |  |  | 3.74 µM | 4.04 µM | 
CC(=O)N1c2ccccc2C23CCN4CC5=CCOC(O)C(C5CC42)C13 (stereo unspecified) | > 100 µM | > 100 µM |  |  |  |  | TGI [3]: > 100 µM
CC1=CC(C)C(O)C(C)/C=C/C(O)C/C=C(/C)C(=O)CC(O)C(C)\C=C/C=C/C=C\C(=O)NC2=C(O)c3cc(C)c(O)c(c3C(=O)C2=O)C1=O (stereo unspecified) | 65 µM | > 100 µM |  |  |  |  | TGI [3]: > 100 µM
CC(NC1CCC[C@H]1O)c1ccccc1 (mixture of isomers) |  |  | > 100 µM |  |  |  | 
Cc1ccnc2c1NC(=O)c1cccnc1N2C1CC1 | > 100 µM | > 100 µM |  |  | > 100 µM | > 100 µM | 
CCCCCCCCCCCCCCCCCC(=O)NCCCNCCCNC(=O)CCCCCCCCCCCCCCCCC |  |  | > 100 µM | > 100 µM |  |  | TGI [6]: > 100 µM
Cc1cc(N2CCN(C)CC2)nc(NC2CCCC(Nc3ccnc4cc(Cl)ccc34)C2)n1 (stereo unspecified) | 4.45 µM | 6.41 µM |  |  | 1.39 µM | 2.17 µM | 
COc1ccc2cc(C(=O)/C=C/c3ccc(OC)c(OC)c3)ccc2c1 | 7.33 µM |  |  |  | 1.43 µM |  | 
Cc1ccccc1NC(=O)C(=O)Cc1nc2ccccc2s1 |  |  |  | > 100 µM |  |  | TGI [6]: > 100 µM

SMILES | TGI [1] | TGI [2] | TGI [4] | TGI [5] | GI50 [1] | GI50 [2] | other results
COC(=O)c1c2c(c(C)[n+]([O-])c1C)C(=O)C(NCc1ccc(F)c(Cl)c1)=CC2=O | 3.23 µM | 21.5 µM |  |  | 1.32 µM | 3.22 µM | 
Oc1cccc(C2SCc3nc4ccccc4n32)c1 (stereo unspecified) |  |  |  | > 100 µM |  |  | 
N#Cc1cccc(Nc2nccc(-c3cnn4ncccc34)n2)c1 | > 25 µM | 0.021 µM |  |  | 0.00856 µM | 0.00482 µM | 
Cc1ccc(NC2=C(Cl)C(=O)c3nc(C)ccc3C2=O)cc1 |  | 4.8 µM |  |  |  | 1.88 µM | 
Cc1oc2c(c1C(=O)c1ccccc1)C(=O)c1ccccc1C2=O | 10.6 µM | > 100 µM | 31.9 µM | 10 µM |  |  | TGI [6]: > 100 µM; TGI [3]: 3.9 µM
COc1cc2c(cc1OC)-c1c(cc(OC)c(OC)c1OC)C2=O |  |  | > 100 µM | > 100 µM |  |  | TGI [6]: > 100 µM
O=C1c2cccc3c(N4CCN(c5ccc6c7c(cccc57)C(=O)N(CCN5CCNCC5)C6=O)CC4)ccc(c23)C(=O)N1CCN1CCNCC1 | 41.1 µM | 44.8 µM |  |  | 11.2 µM | 17.2 µM | 
O=C(Oc1ccc([N+](=O)[O-])cc1)N1CCC(C(O)(c2ccc3c(c2)OCO3)c2ccc3c(c2)OCO3)CC1 | > 100 µM | > 100 µM |  |  | > 100 µM | > 80.4 µM | 
CC(C)(C)C1CCC2c3c([nH]c4ccccc34)C3C(=O)N(c4ccc(Br)cc4)C(=O)C3C2C1 (stereo unspecified) |  |  | 42.2 µM | > 100 µM |  |  | 
O=C(O)[C@@H]1C[C@@H](O)CN1 | > 100 µM | > 100 µM |  |  |  |  | TGI [3]: > 100 µM
COc1ccc(C(=O)C(C(=O)C(=O)Nc2nc3ccc(OC)cc3s2)c2ccc(OC)cc2)cc1 (stereo unspecified) |  |  | > 100 µM | > 100 µM |  |  | TGI [6]: > 100 µM
O=C1CCC(=O)c2cc(Br)ccc2N1 |  |  | > 100 µM | > 100 µM |  |  | TGI [6]: > 100 µM
CC(=O)Nc1ccc(/C=c2\sc3nnc(/C=C/c4ccccc4)n3c2=O)cc1 |  |  | > 50 µM | > 50 µM |  |  | TGI [6]: > 50 µM
O=C(N/N=C/c1cc2ccccc2c2ccccc12)c1cc(O)c(O)c(O)c1 | 19.7 µM | 8.86 µM |  |  | 3.68 µM | 2.67 µM | 
COCCOC(C)C(/C=N/NC(N)=S)=N/NC(N)=S (stereo unspecified) |  | > 100 µM |  |  |  | > 100 µM | 
C=CC(=O)Nc1cc2c(Nc3ccc(OCc4ccccn4)c(Cl)c3)ncnc2cc1OCCN1CCOCC1 | > 100 µM | > 100 µM |  |  |  | 2.01 µM | 
Nc1ccc(-c2ccc(-c3nc4ccccc4[nH]3)cc2)cc1 | > 100 µM | > 100 µM |  |  | 0.765 µM | 31.1 µM | 
COc1cc(/C=C2\C(=O)N(c3c(Cl)cccc3Cl)c3ccccc32)cc(OC)c1O | 9.26 µM | > 27.8 µM |  |  | 0.524 µM | 8.98 µM | 
CCC(=S)N(C)O | > 100 µM | > 100 µM | > 100 µM | > 100 µM |  |  | TGI [3]: > 100 µM
N/C(=N\C(=S)N1CCCCC1)N1CCCCC1 |  |  | > 100 µM | > 100 µM |  |  | 
